Values of other authors, collected in US10258574B2, “Method of preparing itraconazole preparation” (CHANGZHOU PHARMACEUTICAL FACTORY CO., LTD., priority 2015, dated 2019).

Conditions: rat; clinical relevance yet unclear

In the case of 2-hydroxypropyl-β-cyclodextrin, the carcinogenicity finding is listed as “cause pancreatic cancer”.
